{"source": "patent US20090263507A1", "about": "“BIOLOGICAL MARKERS AND RESPONSE TO TREATMENT FOR PAIN, INFLAMMATION, NEURONAL OR VASCULAR INJURY AND METHODS OF USE” (Warsaw Orthopedic, Inc., priority 2008, published 2009)", "key": {"stroke": {"system": "stroke", "details": "intravenous, up to 12 hours following stroke onset, 2589 patients (Muir et al., 2004); cited from earlier work"}, "TBI": {"system": "TBI", "details": "University of Washington trial initiated in 1999, preliminary data; cited from earlier work"}, "brain injury": {"system": "brain injury", "test": "Loss of cognitive functions (ability to learn a new spatial task) following brain injury", "assay_type": "in vivo, animals", "details": "single agent alone", "from_the_text": "The discovery of a synergistic effect between PEG, a biomembrane sealing agent, and magnesium is highly significant as it can lead to the development of therapeutic formulations with improved efficacy for the treatment of neuronal trauma, inflammatory and painful conditions."}, "pain": {"system": "pain", "details": "Crosby et al., 2000; cited from earlier work"}}, "data": [{"compound": "O=S(=O)([O-])[O-].[Mg+2]", "note": "[magnesium sulfate]", "values": [{"measurement": "clinical improvement after stroke", "setting": "stroke", "result": "no significant improvement"}, {"measurement": "outcome of magnesium sulfate therapy in TBI patients", "setting": "TBI", "result": "negative"}]}, {"compound": "[Mg+2]", "note": "[magnesium]", "values": [{"measurement": "effect on the loss of cognitive functions following brain injury", "setting": "brain injury", "result": "no effect"}, {"measurement": "duration of analgesic effects", "setting": "pain", "result": "≤ 4", "unit": "h"}]}]}
